Experiments:
Experiment in all cases: Test 1A glasshouse assay, post-emergence herbicidal activity
Assay type in all cases: in vivo
[1] = test system: Echinochloa crus-galli (ECHCG); settings: Echinochloa crus-galli, 312 h, application rate 250 g/ha, 13 days after application, visual (100%=total damage; 0%=no damage), read-out: Post-emergence Herbicidal Activity (% Phytotoxicity) ECHCG
Summary of the method: (§1)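 Post-emergence: plants sprayed after 8 days' glasshouse growth (24/16° C, 14 h light, 65% humidity) with acetone/water (50:50) formulation containing 0.5% Tween 20. Visual % phytotoxicity (0 = none, 100 = total damage) scored 13 days after application.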

Avena fatua (AVEFA) = settings: Avena fatua, 312 h, application rate 250 g/ha, 13 days after application, visual (100%=total damage; 0%=no damage), read-out: Post-emergence Herbicidal Activity (% Phytotoxicity) AVEFA
Summary of the method: as §1

[2] = test system: Alopecurus myosuroides (ALOMY); settings: Alopecurus myosuroides, 312 h, application rate 250 g/ha, 13 days after application, visual (100%=total damage; 0%=no damage), read-out: Post-emergence Herbicidal Activity (% Phytotoxicity) ALOMY
Summary of the method: as §1

Lolium perenne (LOLPE) = settings: Lolium perenne, 312 h, application rate 250 g/ha, 13 days after application, visual (100%=total damage; 0%=no damage), read-out: Post-emergence Herbicidal Activity (% Phytotoxicity) LOLPE
Summary of the method: as §1

`Cc1cc(C)c(C2=C(OS(=O)(=O)c3ccc(F)cc3)CC(CCNC(=O)c3ccc(Br)cn3)C2=O)c(C)c1` (stereo not shown) [Compound P19] gave a pest or weed control at 250 g/ha [1] of 100%, a pest or weed control at 250 g/ha (Avena fatua (AVEFA)) of 100% and a pest or weed control at 250 g/ha [2] of 100%. The pest or weed control at 250 g/ha (Lolium perenne (LOLPE)) was 100%.
`CCOCOC1=C(c2c(C)cc(C)cc2C)C(=O)C(CCNC(=O)c2ccc(Br)cn2)C1` (stereo not shown) [Compound P20] showed a pest or weed control at 250 g/ha [1] of 100%, a pest or weed control at 250 g/ha (Avena fatua (AVEFA)) of 100% and a pest or weed control at 250 g/ha [2] of 100%. For the same compound, the pest or weed control at 250 g/ha (Lolium perenne (LOLPE)) was 100%.
Compound `Cc1cc(-n2cc(Cl)cn2)cc(C)c1C1=C(OC(=O)N2CCCC2)CC(CCNC(=O)c2ccccn2)C1=O` (stereo not shown) [Compound P21] has a pest or weed control at 250 g/ha [1] of 100%, a pest or weed control at 250 g/ha (Avena fatua (AVEFA)) of 80% and a pest or weed control at 250 g/ha [2] of 80%. For the same compound, the pest or weed control at 250 g/ha (Lolium perenne (LOLPE)) was 70%.
For `Cc1cc(C)c(C2=C(OC(=O)N3CCCC3)CC(CCNC(=O)c3ccc(Br)cn3)C2=O)c(C)c1` (stereo not shown) [Compound P22], the pest or weed control at 250 g/ha [1] was 100%, the pest or weed control at 250 g/ha (Avena fatua (AVEFA)) was 100% and the pest or weed control at 250 g/ha [2] was 90%. It also gave a pest or weed control at 250 g/ha (Lolium perenne (LOLPE)) of 100%.
